Patent publication US10953011B2, “Methods of treating virally associated cancers with histone deacetylase inhibitors” (priority 2019, dated 2021)
Read-outs that look alike come from different tables or passages of the source.

Columns and labels:
[1] = Single dose pharmacokinetics of oral nanatinostat in patients; format: in vivo, humans; conditions: human, serum; for AUC: read-out: AUC (ng-h/mL), geometric mean; for AUC(0-t): read-out: AUClast (ng-h/mL), geometric mean; for Cmax: read-out: Cmax (ng/mL), geometric mean; for Tmax: read-out: Tmax (h), median (range)
[2] = test system: Histone 3 acetylation in peripheral blood mononuclear cells; assay: H3 acetylation in PBMC by flow cytometry; format: cell-based, human
Excerpt: Percentage of cells with H3 acetylation, as determined by flow cytometry, is shown.
Since H3 acetylation is a pharmacodynamic biomarker of Nstat activity, acetylation of H3 was examined in treated cells.

[3] = test system: P3HR1 Burkitt's lymphoma cells; assay: Cell death (7AAD) after Nstat, washout, then ganciclovir
Procedure: P3HR1 Burkitt's lymphoma cells were incubated with DMSO (solvent control) or Nstat for 3 days. After that time cell cultures were washed re-fed with ganciclovir (GCV) for an additional 3 days. All test conditions were run in triplicate. Cell death was measured by 7AAD staining.

[4] = biological target: T1, HDAC 6 (Homo sapiens, UniProt Q9UBN7); conditions: descriptive statement; cited from earlier work
T1 sequence (Q9UBN7 1-1215): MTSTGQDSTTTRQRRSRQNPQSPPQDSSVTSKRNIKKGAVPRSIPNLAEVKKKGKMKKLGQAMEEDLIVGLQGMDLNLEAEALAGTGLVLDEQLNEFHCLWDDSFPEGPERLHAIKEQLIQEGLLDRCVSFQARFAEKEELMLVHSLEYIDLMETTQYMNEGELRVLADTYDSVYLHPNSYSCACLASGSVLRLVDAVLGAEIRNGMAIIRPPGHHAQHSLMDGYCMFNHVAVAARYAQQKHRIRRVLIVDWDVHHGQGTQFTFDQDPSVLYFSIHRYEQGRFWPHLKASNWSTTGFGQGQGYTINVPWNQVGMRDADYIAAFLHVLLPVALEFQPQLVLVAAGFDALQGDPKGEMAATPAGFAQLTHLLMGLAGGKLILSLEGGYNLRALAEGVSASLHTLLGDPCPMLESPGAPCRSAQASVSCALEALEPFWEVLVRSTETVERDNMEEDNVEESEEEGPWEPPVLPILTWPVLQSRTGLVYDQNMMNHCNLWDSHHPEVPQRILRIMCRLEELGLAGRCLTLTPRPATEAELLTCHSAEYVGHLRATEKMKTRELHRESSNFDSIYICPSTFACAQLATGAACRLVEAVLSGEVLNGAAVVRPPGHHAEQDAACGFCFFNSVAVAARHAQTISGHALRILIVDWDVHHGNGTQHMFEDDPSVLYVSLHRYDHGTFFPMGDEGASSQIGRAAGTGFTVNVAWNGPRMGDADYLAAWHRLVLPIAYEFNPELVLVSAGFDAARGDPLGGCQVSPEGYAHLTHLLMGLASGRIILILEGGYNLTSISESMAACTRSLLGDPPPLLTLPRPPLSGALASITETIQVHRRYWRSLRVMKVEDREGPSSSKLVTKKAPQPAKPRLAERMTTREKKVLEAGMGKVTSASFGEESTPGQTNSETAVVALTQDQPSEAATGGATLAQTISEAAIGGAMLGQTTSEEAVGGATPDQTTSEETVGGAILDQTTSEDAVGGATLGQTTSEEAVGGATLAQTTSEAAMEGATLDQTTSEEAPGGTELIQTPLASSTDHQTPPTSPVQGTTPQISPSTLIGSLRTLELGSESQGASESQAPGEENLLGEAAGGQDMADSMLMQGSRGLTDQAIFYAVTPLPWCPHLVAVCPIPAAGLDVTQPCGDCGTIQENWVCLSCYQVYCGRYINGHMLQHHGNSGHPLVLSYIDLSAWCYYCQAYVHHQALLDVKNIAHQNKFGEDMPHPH

[5] = 5 mg, A = 5 mg VRx-3996 p.o. and 450 mg Valganciclovir p.o., single dose
[6] = 10 mg, B = 10 mg VRx-3996 p.o. and 450 mg Valganciclovir p.o., single dose
[7] = 10 mg, C = 10 mg VRx-3996 p.o. and 900 mg Valganciclovir p.o., single dose

Work on `O=C(NO)c1cnc(N2C[C@@H]3[C@H](C2)[C@H]3NCc2ccc3cc(F)ccc3n2)nc1` [Nanatinostat, 2-((1R,5S,6s)-6-(((6-fluoroquinolin-2-yl)methyl)amino)-3-azabicyclo[3.1.0]hexan-3-yl)-N-hydroxypyrimidine-5-carboxamide] yielded an AUC [1, 5] of 117 ng·h/mL, an AUC(0-t) [1, 5] of 40.5 ng·h/mL and a Cmax [1, 5] of 18.5 ng/mL. It also gave a half-life ([1]; 5 mg, A = 5 mg VRx-3996 p.o. and 450 mg Valganciclovir p.o., single dose, read-out: Half-Life (h), geometric mean (converted)) of 2.18 h, a Tmax [1, 5] of 3 h and an AUC [1, 6] of 317 ng·h/mL. The AUC(0-t) [1, 6] was 165 ng·h/mL, the Cmax [1, 6] was 62.6 ng/mL and the half-life ([1]; 10 mg, B = 10 mg VRx-3996 p.o. and 450 mg Valganciclovir p.o., single dose, read-out: Half-Life (h), geometric mean (converted)) was 1.17 h. For the same compound, the Tmax [1, 6] was 2 h, the AUC [1, 7] was 322 ng·h/mL and the AUC(0-t) [1, 7] was 227 ng·h/mL. It also gave a Cmax [1, 7] of 78.9 ng/mL, a half-life ([1]; 10 mg, C = 10 mg VRx-3996 p.o. and 900 mg Valganciclovir p.o., single dose, read-out: Half-Life (h), geometric mean (converted)) of 1.67 h and a Tmax [1, 7] of 1 h. The half-life ([1]; humans, oral, summary of Table 6, read-out: T1/2 (converted)) was ~2 h, the “Duration of effect on H3 acetylation” value ([2]; PBMC of healthy donors, time-course, doses down to 10 nM, FIG. 3) was “long-lasting” and the “Potency in inducing elevated levels of Histone 3 acetylation” value ([2]; PBMC of healthy volunteers, even at 100 nM, FIG. 2) was “much more potent than entinostat”. The “Increase of cytotoxic activity when combined with Ganciclovir” value [3] was ~40%, the “Cell cytotoxicity when combined with ganciclovir” value ([3]; EBV infected cell line, seen even after Nstat removal) was “increases cell cytotoxicity” and the “Activity against HDAC 6” value [4] was “not HDAC 6”.
